Results: the kinase profiling compilation of Christmann-Franck et al. (2016)

Assays:
Assay in all cases: radiometric filter-binding kinase assay, Kinase HotSpot
Details in all cases: compound 0.5 µM; ATP 10 µM
BTK (human) = BTK (human) (UniProt Q06187)
PRKCE (human) = PRKCE (human) (UniProt Q02156)
ACVR1 (human) = ACVR1 (human) (UniProt Q04771)
DYRK1B (human) = DYRK1B (human) (UniProt Q9Y463)
PAK2 (human) = PAK2 (human) (UniProt Q13177)
CDK4 CCND3 (human) = CDK4 CCND3 (human) (UniProt P30281+P11802)
ULK2 (human) = ULK2 (human) (UniProt Q8IYT8)
STK17A (human) = STK17A (human) (UniProt Q9UEE5)
BMX (human) = BMX (human) (UniProt P51813)
SRPK3 (human) = SRPK3 (human) (UniProt Q9UPE1)
SRPK3 (human), sequence (Q9UPE1 whole entry, looked up): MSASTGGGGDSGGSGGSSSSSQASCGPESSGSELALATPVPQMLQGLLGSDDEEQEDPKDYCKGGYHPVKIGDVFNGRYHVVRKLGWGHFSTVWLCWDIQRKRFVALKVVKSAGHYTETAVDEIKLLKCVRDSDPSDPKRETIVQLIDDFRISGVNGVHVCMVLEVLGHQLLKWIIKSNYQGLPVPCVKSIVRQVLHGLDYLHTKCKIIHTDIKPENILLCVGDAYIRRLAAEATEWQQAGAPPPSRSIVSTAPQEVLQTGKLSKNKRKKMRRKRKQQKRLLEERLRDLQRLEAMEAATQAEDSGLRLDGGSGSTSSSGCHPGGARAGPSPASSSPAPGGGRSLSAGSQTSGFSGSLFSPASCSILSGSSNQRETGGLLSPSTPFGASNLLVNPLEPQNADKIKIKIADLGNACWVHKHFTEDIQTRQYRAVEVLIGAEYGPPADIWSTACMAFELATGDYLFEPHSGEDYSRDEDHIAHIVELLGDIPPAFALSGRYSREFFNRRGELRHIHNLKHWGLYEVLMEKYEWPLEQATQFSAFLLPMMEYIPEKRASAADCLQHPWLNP

CDC42BPB (human) = CDC42BPB (human) (UniProt Q9Y5S2)
LCK (human) = LCK (human) (UniProt P06239)
LCK (human), sequence (P06239 whole entry, looked up): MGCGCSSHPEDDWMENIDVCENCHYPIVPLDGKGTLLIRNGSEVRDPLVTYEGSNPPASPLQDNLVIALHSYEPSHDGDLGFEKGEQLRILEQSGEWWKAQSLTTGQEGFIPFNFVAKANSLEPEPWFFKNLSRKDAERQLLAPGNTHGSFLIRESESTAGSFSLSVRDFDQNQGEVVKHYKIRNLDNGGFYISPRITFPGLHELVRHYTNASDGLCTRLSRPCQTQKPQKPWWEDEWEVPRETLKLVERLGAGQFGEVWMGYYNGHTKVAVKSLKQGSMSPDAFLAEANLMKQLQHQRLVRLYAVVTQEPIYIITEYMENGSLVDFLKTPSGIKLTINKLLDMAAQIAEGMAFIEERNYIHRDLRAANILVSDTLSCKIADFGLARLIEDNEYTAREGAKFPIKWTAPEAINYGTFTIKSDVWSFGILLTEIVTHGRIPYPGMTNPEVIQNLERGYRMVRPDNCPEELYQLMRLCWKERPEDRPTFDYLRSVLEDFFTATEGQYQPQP

PIM1 (human) = PIM1 (human) (UniProt P11309)
PASK (human) = PASK (human) (UniProt Q96RG2)
PASK (human), sequence (Q96RG2 whole entry, looked up): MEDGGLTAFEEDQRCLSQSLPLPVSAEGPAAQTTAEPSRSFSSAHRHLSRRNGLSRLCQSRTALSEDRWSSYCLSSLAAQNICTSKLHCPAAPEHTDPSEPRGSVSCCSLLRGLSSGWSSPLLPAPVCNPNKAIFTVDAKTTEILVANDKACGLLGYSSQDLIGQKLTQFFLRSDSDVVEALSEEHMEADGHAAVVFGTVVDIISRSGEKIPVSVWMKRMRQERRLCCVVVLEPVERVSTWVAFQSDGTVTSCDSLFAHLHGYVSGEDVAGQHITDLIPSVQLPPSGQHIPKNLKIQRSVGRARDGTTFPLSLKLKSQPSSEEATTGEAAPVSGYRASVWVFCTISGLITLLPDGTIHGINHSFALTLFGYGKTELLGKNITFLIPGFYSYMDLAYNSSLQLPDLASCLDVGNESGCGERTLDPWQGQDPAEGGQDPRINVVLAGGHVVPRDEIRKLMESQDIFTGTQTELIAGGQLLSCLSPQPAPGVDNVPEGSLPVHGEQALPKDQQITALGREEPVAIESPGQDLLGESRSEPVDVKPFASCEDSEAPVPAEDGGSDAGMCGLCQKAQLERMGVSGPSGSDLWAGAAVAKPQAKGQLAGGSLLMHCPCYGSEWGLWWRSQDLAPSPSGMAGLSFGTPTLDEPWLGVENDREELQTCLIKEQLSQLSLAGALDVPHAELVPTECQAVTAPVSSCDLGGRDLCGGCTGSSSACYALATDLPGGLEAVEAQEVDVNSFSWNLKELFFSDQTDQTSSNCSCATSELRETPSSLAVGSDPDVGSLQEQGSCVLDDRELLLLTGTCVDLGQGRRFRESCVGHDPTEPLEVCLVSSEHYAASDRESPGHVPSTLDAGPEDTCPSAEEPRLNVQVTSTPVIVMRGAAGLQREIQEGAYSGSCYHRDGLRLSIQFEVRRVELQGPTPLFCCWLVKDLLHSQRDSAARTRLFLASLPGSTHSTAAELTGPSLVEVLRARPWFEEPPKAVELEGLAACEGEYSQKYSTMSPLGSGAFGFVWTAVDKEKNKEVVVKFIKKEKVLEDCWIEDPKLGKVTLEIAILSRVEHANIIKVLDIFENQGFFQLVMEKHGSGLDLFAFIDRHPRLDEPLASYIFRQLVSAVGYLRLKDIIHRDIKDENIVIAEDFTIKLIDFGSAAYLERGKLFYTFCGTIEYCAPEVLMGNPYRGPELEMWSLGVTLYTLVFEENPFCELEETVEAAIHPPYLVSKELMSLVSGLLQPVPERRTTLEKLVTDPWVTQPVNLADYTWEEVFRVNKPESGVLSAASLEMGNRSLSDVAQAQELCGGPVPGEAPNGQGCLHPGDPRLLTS

INSR (human) = INSR (human) (UniProt P06213)
CLK1 (human) = CLK1 (human) (UniProt P49759)
RPS6KB2 (human) = RPS6KB2 (human) (UniProt Q9UBS0)
RPS6KB2 (human), sequence (Q9UBS0 whole entry, looked up): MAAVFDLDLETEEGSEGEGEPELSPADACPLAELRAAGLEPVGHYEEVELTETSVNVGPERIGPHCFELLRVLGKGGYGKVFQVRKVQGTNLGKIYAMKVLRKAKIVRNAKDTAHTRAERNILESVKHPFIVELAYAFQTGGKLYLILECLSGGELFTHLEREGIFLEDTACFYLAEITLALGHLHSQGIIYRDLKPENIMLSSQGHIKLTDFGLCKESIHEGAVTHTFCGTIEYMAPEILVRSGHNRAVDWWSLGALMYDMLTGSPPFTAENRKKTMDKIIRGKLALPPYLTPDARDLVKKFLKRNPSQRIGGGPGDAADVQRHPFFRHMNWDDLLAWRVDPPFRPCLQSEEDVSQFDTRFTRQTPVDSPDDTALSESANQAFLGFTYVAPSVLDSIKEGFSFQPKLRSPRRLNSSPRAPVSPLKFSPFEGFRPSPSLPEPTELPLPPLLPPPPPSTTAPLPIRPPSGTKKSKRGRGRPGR

CAMKK1 (human) = CAMKK1 (human) (UniProt Q8N5S9)
FLT3 (human) = FLT3 (human) (UniProt P36888)
PTK6 (human) = PTK6 (human) (UniProt Q13882)
NEK9 (human) = NEK9 (human) (UniProt Q8TD19)
GSG2 (human) = GSG2 (human) (UniProt Q8TF76)
STK25 (human) = STK25 (human) (UniProt O00506)
NEK11 (human) = NEK11 (human) (UniProt Q8NG66)
JAK3 JH1 JH2 (human) = JAK3 JH1 JH2 (human) (UniProt P52333)
PHKG2 (human) = PHKG2 (human) (UniProt P15735)
MAP3K14 (human) = MAP3K14 (human) (UniProt Q99558)
RET (human) = RET (human) (UniProt P07949)
RET (human), sequence (P07949 whole entry, looked up): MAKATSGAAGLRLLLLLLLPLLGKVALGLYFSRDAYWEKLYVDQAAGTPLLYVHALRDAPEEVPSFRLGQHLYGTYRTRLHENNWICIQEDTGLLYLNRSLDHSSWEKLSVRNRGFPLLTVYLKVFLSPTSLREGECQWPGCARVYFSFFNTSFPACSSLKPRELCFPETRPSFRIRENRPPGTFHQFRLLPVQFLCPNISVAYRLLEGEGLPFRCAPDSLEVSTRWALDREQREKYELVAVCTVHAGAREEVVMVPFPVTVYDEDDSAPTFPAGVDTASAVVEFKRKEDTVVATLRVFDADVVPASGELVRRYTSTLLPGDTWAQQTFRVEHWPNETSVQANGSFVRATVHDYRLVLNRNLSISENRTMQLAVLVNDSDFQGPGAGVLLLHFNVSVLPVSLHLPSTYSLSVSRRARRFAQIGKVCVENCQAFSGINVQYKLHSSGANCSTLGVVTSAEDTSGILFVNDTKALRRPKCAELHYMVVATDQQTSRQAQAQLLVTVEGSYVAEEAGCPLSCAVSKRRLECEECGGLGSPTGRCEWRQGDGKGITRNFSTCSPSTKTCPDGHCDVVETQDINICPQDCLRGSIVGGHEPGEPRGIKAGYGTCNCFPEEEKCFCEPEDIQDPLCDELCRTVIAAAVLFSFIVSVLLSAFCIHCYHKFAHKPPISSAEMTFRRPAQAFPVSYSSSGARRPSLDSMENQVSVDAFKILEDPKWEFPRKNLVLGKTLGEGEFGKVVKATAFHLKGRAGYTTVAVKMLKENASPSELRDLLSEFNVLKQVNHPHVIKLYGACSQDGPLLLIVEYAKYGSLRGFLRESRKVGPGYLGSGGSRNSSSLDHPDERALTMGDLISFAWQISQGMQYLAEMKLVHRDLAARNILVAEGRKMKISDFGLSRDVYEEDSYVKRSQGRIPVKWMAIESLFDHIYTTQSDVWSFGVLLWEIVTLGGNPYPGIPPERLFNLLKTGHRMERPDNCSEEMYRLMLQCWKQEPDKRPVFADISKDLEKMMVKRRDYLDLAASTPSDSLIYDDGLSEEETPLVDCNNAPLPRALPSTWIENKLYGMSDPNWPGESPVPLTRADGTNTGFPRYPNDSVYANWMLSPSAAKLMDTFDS

FES (human) = FES (human) (UniProt P07332)
PRKCH (human) = PRKCH (human) (UniProt P24723)
PRKCZ (human) = PRKCZ (human) (UniProt Q05513)
PLK1 (human) = PLK1 (human) (UniProt P53350)
CSNK1E (human) = CSNK1E (human) (UniProt P49674)
MYLK2 (human) = MYLK2 (human) (UniProt Q9H1R3)
DCLK2 (human) = DCLK2 (human) (UniProt Q8N568)
EPHB4 (human) = EPHB4 (human) (UniProt P54760)
RPS6KA4 KD2 (human) = RPS6KA4 KD2 (human) (UniProt O75676)
RPS6KA4 KD2 (human), sequence (O75676 whole entry, looked up): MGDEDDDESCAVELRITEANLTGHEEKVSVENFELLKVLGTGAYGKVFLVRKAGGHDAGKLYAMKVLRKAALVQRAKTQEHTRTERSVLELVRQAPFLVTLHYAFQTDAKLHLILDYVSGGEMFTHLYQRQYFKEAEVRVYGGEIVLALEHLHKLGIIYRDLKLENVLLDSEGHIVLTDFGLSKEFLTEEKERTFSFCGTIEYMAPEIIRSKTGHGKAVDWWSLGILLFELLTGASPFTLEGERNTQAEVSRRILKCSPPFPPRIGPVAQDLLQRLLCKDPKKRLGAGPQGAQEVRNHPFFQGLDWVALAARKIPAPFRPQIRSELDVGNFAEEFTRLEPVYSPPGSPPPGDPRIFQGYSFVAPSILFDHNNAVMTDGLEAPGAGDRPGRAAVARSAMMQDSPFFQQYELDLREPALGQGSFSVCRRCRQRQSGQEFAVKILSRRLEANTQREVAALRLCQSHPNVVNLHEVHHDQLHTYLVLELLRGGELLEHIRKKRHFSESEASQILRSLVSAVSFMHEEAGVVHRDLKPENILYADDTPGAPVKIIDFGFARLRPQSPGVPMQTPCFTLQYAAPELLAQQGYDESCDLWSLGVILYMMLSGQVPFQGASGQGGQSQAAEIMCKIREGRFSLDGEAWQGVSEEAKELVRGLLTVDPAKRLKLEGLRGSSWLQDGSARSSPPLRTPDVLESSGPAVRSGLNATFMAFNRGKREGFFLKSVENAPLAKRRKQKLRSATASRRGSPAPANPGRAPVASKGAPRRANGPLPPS

DDR2 (human) = DDR2 (human) (UniProt Q16832)
MAPK13 (human) = MAPK13 (human) (UniProt O15264)
ACVRL1 (human) = ACVRL1 (human) (UniProt P37023)
MKNK2 (human) = MKNK2 (human) (UniProt Q9HBH9)
PRKCA (human) = PRKCA (human) (UniProt P17252)

## O=C1Nc2cc(Br)ccc2/C1=C1/Nc2ccccc2/C1=N\O
BTK (human)
  residual activity: 13.1%
PRKCE (human)
  residual activity: 92.4%
ACVR1 (human)
  residual activity: 114%
DYRK1B (human)
  residual activity: 80.3%
PAK2 (human)
  residual activity: 90.9%
CDK4 CCND3 (human)
  residual activity: 75.9%
ULK2 (human)
  residual activity: 94%
STK17A (human)
  residual activity: 49.2%
BMX (human)
  residual activity: 29.2%
SRPK3 (human)
  residual activity: 96.4%
CDC42BPB (human)
  residual activity: 97.5%
LCK (human)
  residual activity: 39%
PIM1 (human)
  residual activity: 96.1%
PASK (human)
  residual activity: 97.9%
INSR (human)
  residual activity: 92.5%
CLK1 (human)
  residual activity: 93.1%
RPS6KB2 (human)
  residual activity: 100%
CAMKK1 (human)
  residual activity: 50.5%
FLT3 (human)
  residual activity: 4.02%
PTK6 (human)
  residual activity: 89.3%
NEK9 (human)
  residual activity: 96.3%
GSG2 (human)
  residual activity: 95.9%
STK25 (human)
  residual activity: 96.3%
NEK11 (human)
  residual activity: 118%
JAK3 JH1 JH2 (human)
  residual activity: 53.3%
PHKG2 (human)
  residual activity: 92.5%
MAP3K14 (human)
  residual activity: 89.6%
RET (human)
  residual activity: 0.0602%
FES (human)
  residual activity: 96%
PRKCH (human)
  residual activity: 78.6%
PRKCZ (human)
  residual activity: 100%
PLK1 (human)
  residual activity: 101%
CSNK1E (human)
  residual activity: 83.7%
MYLK2 (human)
  residual activity: 17.6%
DCLK2 (human)
  residual activity: 99.1%
EPHB4 (human)
  residual activity: 78.5%
RPS6KA4 KD2 (human)
  residual activity: 56.1%
DDR2 (human)
  residual activity: 69.7%
MAPK13 (human)
  residual activity: 87.5%
ACVRL1 (human)
  residual activity: 103%
MKNK2 (human)
  residual activity: 75.3%

## Clc1ccc(Nc2nnc(Cc3ccncc3)c3ccccc23)cc1
BTK (human)
  residual activity: 95.4%
PRKCE (human)
  residual activity: 100%
ACVR1 (human)
  residual activity: 96.1%
DYRK1B (human)
  residual activity: 109%
PAK2 (human)
  residual activity: 101%
CDK4 CCND3 (human)
  residual activity: 102%
ULK2 (human)
  residual activity: 99.9%
STK17A (human)
  residual activity: 99.4%
BMX (human)
  residual activity: 106%
SRPK3 (human)
  residual activity: 104%
CDC42BPB (human)
  residual activity: 99.5%
LCK (human)
  residual activity: 87%
PIM1 (human)
  residual activity: 102%
PASK (human)
  residual activity: 101%
INSR (human)
  residual activity: 99.9%
CLK1 (human)
  residual activity: 110%
RPS6KB2 (human)
  residual activity: 101%
CAMKK1 (human)
  residual activity: 97.2%
FLT3 (human)
  residual activity: 92%
NEK9 (human)
  residual activity: 98.4%
GSG2 (human)
  residual activity: 70%
PRKCA (human)
  residual activity: 75.8%
STK25 (human)
  residual activity: 94%
NEK11 (human)
  residual activity: 87%
JAK3 JH1 JH2 (human)
  residual activity: 92.1%
PHKG2 (human)
  residual activity: 91.8%
MAP3K14 (human)
  residual activity: 126%
RET (human)
  residual activity: 89.1%
FES (human)
  residual activity: 94.7%
PRKCH (human)
  residual activity: 105%
PRKCZ (human)
  residual activity: 69.5%
PLK1 (human)
  residual activity: 95.9%
CSNK1E (human)
  residual activity: 99.1%
MYLK2 (human)
  residual activity: 103%
DCLK2 (human)
  residual activity: 100%
EPHB4 (human)
  residual activity: 85.1%
RPS6KA4 KD2 (human)
  residual activity: 98%
DDR2 (human)
  residual activity: 97.1%
MAPK13 (human)
  residual activity: 88.9%
ACVRL1 (human)
  residual activity: 98.5%
MKNK2 (human)
  residual activity: 101%

## O=C1Cc2c([nH]c3ccc([N+](=O)[O-])cc23)-c2ccccc2N1
BTK (human)
  residual activity: 98.2%
PRKCE (human)
  residual activity: 111%
ACVR1 (human)
  residual activity: 79.7%
DYRK1B (human)
  residual activity: 87.5%
PAK2 (human)
  residual activity: 41%
ULK2 (human)
  residual activity: 72.7%
STK17A (human)
  residual activity: 46.4%
BMX (human)
  residual activity: 110%
SRPK3 (human)
  residual activity: 92.7%
CDC42BPB (human)
  residual activity: 83.3%
LCK (human)
  residual activity: 81.2%
PIM1 (human)
  residual activity: 92%
PASK (human)
  residual activity: 86.9%
INSR (human)
  residual activity: 101%
CLK1 (human)
  residual activity: 111%
RPS6KB2 (human)
  residual activity: 96.5%
CAMKK1 (human)
  residual activity: 91.7%
FLT3 (human)
  residual activity: 19.7%
PTK6 (human)
  residual activity: 92.7%
NEK9 (human)
  residual activity: 99.3%
GSG2 (human)
  residual activity: 106%
PRKCA (human)
  residual activity: 59.9%
STK25 (human)
  residual activity: 83.6%
NEK11 (human)
  residual activity: 95.4%
JAK3 JH1 JH2 (human)
  residual activity: 99.7%
PHKG2 (human)
  residual activity: 101%
MAP3K14 (human)
  residual activity: 132%
RET (human)
  residual activity: 81.6%
FES (human)
  residual activity: 46.3%
PRKCH (human)
  residual activity: 96.9%
PRKCZ (human)
  residual activity: 109%
PLK1 (human)
  residual activity: 98%
CSNK1E (human)
  residual activity: 95.9%
MYLK2 (human)
  residual activity: 94.8%
DCLK2 (human)
  residual activity: 105%
EPHB4 (human)
  residual activity: 87.2%
RPS6KA4 KD2 (human)
  residual activity: 90.6%
DDR2 (human)
  residual activity: 103%
ACVRL1 (human)
  residual activity: 76.2%
MKNK2 (human)
  residual activity: 92.9%

## O=C(NC(NC(=S)Nc1ccc(F)c([N+](=O)[O-])c1)C(Cl)(Cl)Cl)C(c1ccccc1)c1ccccc1 (stereo not drawn)
BTK (human)
  residual activity: 104%
PRKCE (human)
  residual activity: 109%
ACVR1 (human)
  residual activity: 98.8%
DYRK1B (human)
  residual activity: 103%
PAK2 (human)
  residual activity: 100%
CDK4 CCND3 (human)
  residual activity: 93.7%
STK17A (human)
  residual activity: 99.8%
BMX (human)
  residual activity: 102%
SRPK3 (human)
  residual activity: 98%
CDC42BPB (human)
  residual activity: 97.2%
LCK (human)
  residual activity: 91.8%
PIM1 (human)
  residual activity: 101%
PASK (human)
  residual activity: 104%
INSR (human)
  residual activity: 100%
CLK1 (human)
  residual activity: 106%
RPS6KB2 (human)
  residual activity: 99.3%
CAMKK1 (human)
  residual activity: 128%
FLT3 (human)
  residual activity: 99.3%
PTK6 (human)
  residual activity: 87.8%
NEK9 (human)
  residual activity: 110%
GSG2 (human)
  residual activity: 109%
PRKCA (human)
  residual activity: 73.1%
STK25 (human)
  residual activity: 96.2%
NEK11 (human)
  residual activity: 92.2%
JAK3 JH1 JH2 (human)
  residual activity: 110%
PHKG2 (human)
  residual activity: 109%
MAP3K14 (human)
  residual activity: 92.1%
RET (human)
  residual activity: 103%
FES (human)
  residual activity: 104%
PRKCH (human)
  residual activity: 103%
PRKCZ (human)
  residual activity: 98%
PLK1 (human)
  residual activity: 111%
CSNK1E (human)
  residual activity: 111%
MYLK2 (human)
  residual activity: 104%
DCLK2 (human)
  residual activity: 108%
EPHB4 (human)
  residual activity: 101%
RPS6KA4 KD2 (human)
  residual activity: 92.7%
DDR2 (human)
  residual activity: 96.4%
MAPK13 (human)
  residual activity: 107%
ACVRL1 (human)
  residual activity: 107%
MKNK2 (human)
  residual activity: 135%

## CCN1/C(=C/C(C)=O)Sc2ccc(OC)cc21
BTK (human)
  residual activity: 101%
PRKCE (human)
  residual activity: 95.2%
ACVR1 (human)
  residual activity: 88.1%
DYRK1B (human)
  residual activity: 32.9%
PAK2 (human)
  residual activity: 105%
CDK4 CCND3 (human)
  residual activity: 97.4%
STK17A (human)
  residual activity: 99.3%
BMX (human)
  residual activity: 105%
SRPK3 (human)
  residual activity: 95%
CDC42BPB (human)
  residual activity: 114%
LCK (human)
  residual activity: 99.4%
PIM1 (human)
  residual activity: 17.9%
PASK (human)
  residual activity: 72.8%
INSR (human)
  residual activity: 101%
RPS6KB2 (human)
  residual activity: 107%
CAMKK1 (human)
  residual activity: 105%
FLT3 (human)
  residual activity: 76.1%
PTK6 (human)
  residual activity: 85.3%
NEK9 (human)
  residual activity: 102%
GSG2 (human)
  residual activity: 25%
PRKCA (human)
  residual activity: 68.7%
STK25 (human)
  residual activity: 98%
NEK11 (human)
  residual activity: 104%
JAK3 JH1 JH2 (human)
  residual activity: 103%
PHKG2 (human)
  residual activity: 94.6%
MAP3K14 (human)
  residual activity: 86.1%
RET (human)
  residual activity: 96.5%
FES (human)
  residual activity: 101%
PRKCH (human)
  residual activity: 88.1%
PRKCZ (human)
  residual activity: 98%
PLK1 (human)
  residual activity: 97%
CSNK1E (human)
  residual activity: 60.1%
MYLK2 (human)
  residual activity: 95.1%
DCLK2 (human)
  residual activity: 97.9%
EPHB4 (human)
  residual activity: 92.4%
RPS6KA4 KD2 (human)
  residual activity: 91.8%
DDR2 (human)
  residual activity: 96.6%
MAPK13 (human)
  residual activity: 105%
ACVRL1 (human)
  residual activity: 102%
MKNK2 (human)
  residual activity: 93.8%
